The values that follow come from ChEMBL document CHEMBL1143058, “Evaluation of a diverse set of potential P1 carboxylic acid bioisosteres in hepatitis C virus NS3 protease inhibitors” (Bioorg Med Chem, 2007).

A short description of assay [1]: Inhibition of HCV NS3 protease in presence of pH 8.0 buffer. Set-up: species or system Hepacivirus hominis.
Assay [2] is described as follows: Inhibition of HCV NS3 protease in presence of pH 6.0 buffer. The arrangement: species or system Hepacivirus hominis.
Assay [3] in a line: Inhibition of HCV NS3 protease in presence of pH 7.0 buffer. The arrangement: species or system Hepacivirus hominis.
Assay [4] can be described thus: Inhibition of HCV NS3 protease in presence of pH 7.5 HEPES buffer. Set-up: species or system Hepacivirus hominis.
Assay [5] relates to Hepatitis C virus. The assay can be described thus: Inhibition of HCV by subgenomic HCV replication assay. The assay is classed as functional, organism-based, Hepacivirus hominis.

For orientation: Ki means the dissociation constant of the complex between target and ligand, obtained from inhibition or displacement. A word on the EC50: it is the concentration giving half of the maximal effect. A higher EC50 goes with a less potent agent. For the compound `C=C[C@@H]1C[C@]1(NC(=O)[C@@H]1C[C@@H](Oc2cc(-c3ccccc3)nc3cc(OC)ccc23)CN1C(=O)[C@@H](NC(=O)OC(C)(C)C)C(C)(C)C)C(=O)O`, the Ki in assay [1] came out at 8.7 nM; in assay [2], 0.12 nM; in assay [3] it was 0.68 nM; in assay [4], 20 nM. The compound further registered an EC50 in assay [5] of 140 nM.
Turning to `C=C[C@@H]1C[C@]1(NC(=O)[C@@H]1C[C@@H](Oc2cc(-c3ccccc3)nc3cc(OC)ccc23)CN1C(=O)[C@@H](NC(=O)OC(C)(C)C)C(C)(C)C)C(=O)NC#N`, the Ki in assay [1] came out at 10.8 nM; in assay [2] it was 0.14 nM; in assay [3], 0.51 nM; in assay [4], 6 nM. Moreover, in assay [5], the response was half-maximal at 1200 nM (EC50).
The corresponding values for `C=C[C@@H]1C[C@]1(NC(=O)[C@@H]1C[C@@H](Oc2cc(-c3ccccc3)nc3cc(OC)ccc23)CN1C(=O)[C@@H](NC(=O)OC(C)(C)C)C(C)(C)C)C(=O)NS(=O)(=O)c1ccc(C)cc1` are 0.39 nM, 0.006 nM, 0.056 nM, 0.22 nM and 6 nM.
With `C=C[C@@H]1C[C@]1(NC(=O)[C@@H]1C[C@@H](Oc2cc(-c3ccccc3)nc3cc(OC)ccc23)CN1C(=O)[C@@H](NC(=O)OC(C)(C)C)C(C)(C)C)C(=O)NNc1ccccc1`, the Ki in assay [1] worked out at 287 nM; in assay [2], 28 nM; in assay [3], 113 nM; in assay [4], 560 nM. Also, the EC50 in assay [5] is over 10000 nM.
As to `C=C[C@@H]1C[C@]1(NC(=O)[C@@H]1C[C@@H](Oc2cc(-c3ccccc3)nc3cc(OC)ccc23)CN1C(=O)[C@@H](NC(=O)OC(C)(C)C)C(C)(C)C)C(=O)NNC(=O)Cc1ccccc1`, the Ki in assay [4] worked out at 880 nM. In addition, the EC50 in assay [5] was over 10000 nM.
`C=C[C@@H]1C[C@]1(NC(=O)[C@@H]1C[C@@H](Oc2cc(-c3ccccc3)nc3cc(OC)ccc23)CN1C(=O)[C@@H](NC(=O)OC(C)(C)C)C(C)(C)C)C(=O)Nc1nccs1`: the Ki was found to be 343 nM in assay [1], 7.7 nM in assay [2], 294 nM in assay [3] and 821 nM in assay [4]. Also, in assay [5], the EC50 was over 10000 nM.
`C=C[C@@H]1C[C@]1(NC(=O)[C@@H]1C[C@@H](Oc2cc(-c3ccccc3)nc3cc(OC)ccc23)CN1C(=O)[C@@H](NC(=O)OC(C)(C)C)C(C)(C)C)c1nnc(-c2ccccc2)o1`: the Ki in assay [4] came out at 2200 nM. The same compound came in with an EC50 in assay [5] of over 10000 nM.
`C=C[C@@H]1C[C@]1(NC(=O)[C@@H]1C[C@@H](Oc2cc(-c3ccccc3)nc3cc(OC)ccc23)CN1C(=O)[C@@H](NC(=O)OC(C)(C)C)C(C)(C)C)c1nnn[nH]1`: in assay [4], the Ki was 214 nM. The EC50 in assay [5] came to 2800 nM.
On to `C=C[C@@H]1C[C@]1(NC(=O)[C@@H]1C[C@@H](Oc2cc(-c3ccccc3)nc3cc(OC)ccc23)CN1C(=O)[C@@H](NC(=O)OC(C)(C)C)C(C)(C)C)C(=O)NNC(=O)c1ccccc1`, for which, in assay [4], the Ki came out at 1600 nM. In addition, the EC50 in assay [5] is over 10000 nM.
As for `C=C[C@@H]1C[C@]1(NC(=O)[C@@H]1C[C@@H](Oc2cc(-c3ccccc3)nc3cc(OC)ccc23)CN1C(=O)[C@@H](NC(=O)OC(C)(C)C)C(C)(C)C)C(=O)N[S+]([O-])c1ccc(C)cc1` (stereo not given in full), the Ki in assay [4] was 9 nM. The midpoint of the response in assay [5], the EC50, lay at 1800 nM.
For the compound `C=C[C@@H]1C[C@]1(NC(=O)[C@@H]1C[C@@H](Oc2cc(-c3ccccc3)nc3cc(OC)ccc23)CN1C(=O)[C@@H](NC(=O)OC(C)(C)C)C(C)(C)C)C(=O)NO`, the Ki in assay [4] came to 425 nM. For the same compound, it took 3800 nM to reach a half-maximal effect in assay [5] (EC50).
As for `C=C[C@@H]1C[C@]1(NC(=O)[C@@H]1C[C@@H](Oc2cc(-c3ccccc3)nc3cc(OC)ccc23)CN1C(=O)[C@@H](NC(=O)OC(C)(C)C)C(C)(C)C)C(=O)NNS(=O)(=O)c1ccccc1`, in assay [4], the Ki was 140 nM. In assay [5], this compound displayed an EC50 of 1600 nM.
With `C=C[C@@H]1C[C@]1(NC(=O)[C@@H]1C[C@@H](Oc2cc(-c3ccccc3)nc3cc(OC)ccc23)CN1C(=O)[C@@H](NC(=O)OC(C)(C)C)C(C)(C)C)C(=O)NS(=O)(=O)C1CC1`, the Ki in assay [4] was determined as 0.058 nM. Moreover, in assay [5], it took 0.9 nM to reach a half-maximal effect (EC50).
On to `C=C[C@@H]1C[C@]1(NC(=O)[C@@H]1C[C@@H](Oc2cc(-c3ccccc3)nc3cc(OC)ccc23)CN1C(=O)[C@@H](NC(=O)OC(C)(C)C)C(C)(C)C)C(=O)NS(=O)(=O)c1ccccc1`, for which, in assay [4], the Ki was 0.34 nM. This compound gave an EC50 in assay [5] of 6 nM.
As for `C=C[C@@H]1C[C@]1(NC(=O)[C@@H]1C[C@@H](Oc2cc(-c3ccccc3)nc3cc(OC)ccc23)CN1C(=O)[C@@H](NC(=O)OC(C)(C)C)C(C)(C)C)C(=O)NCC(F)(F)F`, the Ki stood at 734 nM in assay [1], 71 nM in assay [2], 349 nM in assay [3] and 1690 nM in assay [4]. In assay [5], this compound gave an EC50 of over 2000 nM.
`C=C[C@@H]1C[C@]1(NC(=O)[C@@H]1C[C@@H](Oc2cc(-c3ccccc3)nc3cc(OC)ccc23)CN1C(=O)[C@@H](NC(=O)OC(C)(C)C)C(C)(C)C)C(=O)NNCc1ccccc1`: the Ki in assay [4] was found to be 1100 nM. For the same compound, the EC50 in assay [5] is over 10000 nM.
